# In patent publication US9420813B2, “Sweetener” (AJINOMOTO CO., INC., priority 2007, dated 2016):
# *1 amine or outer side, *2 acyl side, *3 side chain or, on linkers, in order; H or OH if unused. Where no end group is shown, it is not given here. [ ]: non-standard residue; d: D form. γGlu = O=C(O)[C@H](CCC(=O)[*:2])N[*:1]; Abu = CC[C@H](N)C(=O)O
# Target: T1, human calcium receptor (Homo sapiens, UniProt P41180)
# T1 construct: expressed in transfected cells; host or cells: Xenopus laevis oocytes injected with receptor cRNA; the gene was amplified by PCR from human kidney cDNA (Clontech) and cloned in pBR322
# T1 sequence (P41180 20-1078): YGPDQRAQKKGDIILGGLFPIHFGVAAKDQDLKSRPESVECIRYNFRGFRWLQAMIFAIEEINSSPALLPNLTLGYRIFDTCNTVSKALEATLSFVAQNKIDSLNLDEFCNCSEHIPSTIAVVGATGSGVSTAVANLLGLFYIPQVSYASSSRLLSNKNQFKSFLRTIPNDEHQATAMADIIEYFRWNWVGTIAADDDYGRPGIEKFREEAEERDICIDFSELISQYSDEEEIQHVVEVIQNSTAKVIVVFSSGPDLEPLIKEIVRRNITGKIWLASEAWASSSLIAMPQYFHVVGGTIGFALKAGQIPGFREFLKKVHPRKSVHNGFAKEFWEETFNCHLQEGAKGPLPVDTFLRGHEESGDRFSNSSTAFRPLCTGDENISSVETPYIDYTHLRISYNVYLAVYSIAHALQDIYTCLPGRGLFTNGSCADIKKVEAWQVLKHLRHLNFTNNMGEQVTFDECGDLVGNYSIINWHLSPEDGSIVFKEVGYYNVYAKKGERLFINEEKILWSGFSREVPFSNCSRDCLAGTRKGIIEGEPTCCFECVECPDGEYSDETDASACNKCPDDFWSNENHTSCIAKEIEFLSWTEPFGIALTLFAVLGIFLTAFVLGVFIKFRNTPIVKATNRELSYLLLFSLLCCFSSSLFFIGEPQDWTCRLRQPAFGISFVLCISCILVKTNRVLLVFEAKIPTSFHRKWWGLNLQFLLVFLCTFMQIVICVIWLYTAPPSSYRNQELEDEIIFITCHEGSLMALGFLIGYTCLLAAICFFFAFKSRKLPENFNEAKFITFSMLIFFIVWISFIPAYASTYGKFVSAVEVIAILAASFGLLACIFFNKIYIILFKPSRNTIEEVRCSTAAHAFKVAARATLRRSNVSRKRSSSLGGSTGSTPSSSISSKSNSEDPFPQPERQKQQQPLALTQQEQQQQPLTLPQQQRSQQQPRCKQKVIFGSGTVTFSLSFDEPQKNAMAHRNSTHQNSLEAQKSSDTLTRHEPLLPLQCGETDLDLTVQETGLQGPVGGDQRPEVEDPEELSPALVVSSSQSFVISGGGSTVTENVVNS
# Assay: Calcium receptor-activating effect, Ca ion concentration-dependent Cl ionic current in Xenopus laevis oocyte expression system
# Type: cell-based
# Conditions: for Activity (lowest concentration at which current is detected): peptide added at 1,000 to 0.1 μM, Ca ion concentration-dependent Cl response current, oocytes voltage-clamped at −70 mV
# Description: For evaluation of the calcium receptor-activating effect, Ca ion concentration-dependent Cl ionic current measuring method using a Xenopus laevis oocyte expression system was used. If activator is added to Xenopus laevis oocytes in which the calcium receptor is expressed, intracellular Ca ions increase. Then, the Ca ion concentration-dependent Cl channel opens, and the intracellular current value changes as an ionic current. By measuring the change in the intracellular current value, whether the calcium receptor-activating effect is present or not can be determined.
# Specifically, the abdomen of Xenopus laevis was opened, and an egg batch was taken out and then treated with a 1% collagenase solution at 20° C. for 2 hours to obtain individual oocytes. Into each oocyte, 50 nl of 1 μg/μl receptor cRNA or 50 nl of sterilized water per oocyte were injected by using a micro glass capillary, and the oocytes were cultured at 18° C. for 2 to 3 days. For the culture, a solution obtained by adding 2 mM of pyruvic acid, 10 U/ml of penicillin and 10 μg/ml of streptomycin to the solution in Reference Example 2 was used. After the culture, a test solution was added to the oocytes injected with cRNA or sterilized water. Electrophysiological measurement was performed by using an amplifier Geneclamp 500 (manufactured by Axon) and recording software AxoScope 9.0 (manufactured by Axon). The oocytes were voltage-clamped at −70 mV by the double electrode voltage clamp method, and the intracellular current via the Ca ion concentration-dependent Cl ion was measured. The maximum value of the intracellular currents was defined as the response current value.
# The ability of L-amino acids to activate the calcium receptor was evaluated by using the method described in Reference Example 6. That is, oocytes injected with cRNA of the calcium receptor or sterilized water were prepared, and voltage-clamped at −70 mV by the double electrode voltage clamp method. To the voltage-clamped oocytes, alanine (10 mM), arginine (10 mM), asparagine (10 mM), aspartic acid (10 mM), cysteine (10 mM), glutamine (10 mM), glutamic acid (10 mM), glycine (10 mM), histidine (10 mM), isoleucine (10 mM), leucine (10 mM), lysine (10 mM), methionine (10 mM), phenylalanine (10 mM), proline (10 mM), serine (10 mM), threonine (10 mM), tryptophan (10 mM), tyrosine (10 mM), valine (10 mM), ornithine (10 mM), taurine (10 mM) or hydroxyproline (10 mM) was added, and Ca ion concentration-dependent Cl response current was measured. […] 25, 2000, 97(9): 4814-9.
# The effect of D-cysteine for activating a calcium receptor was evaluated by using the method described in Reference Example 6. That is, oocytes injected with cRNA of the calcium receptor or sterilized water were prepared, and voltage-clamped at −70 mV by the double electrode voltage clamp method. To the voltage-clamped oocytes, D-cysteine (10 mM), L-cysteine (10 mM), D-tryptophan (10 mM) or L-tryptophan (10 mM) was added, and Ca ion concentration-dependent Cl response current was measured.
# The effect of peptide for activating calcium receptor was evaluated by using the method described in Reference Example 6. That is, oocytes injected with cRNA of the calcium receptor or sterilized water were prepared, and voltage-clamped at −70 mV by the double electrode voltage clamp method. To the voltage-clamped oocytes, γ-Glu-Cys-Gly (50 μM), γ-Glu-Cys(SNO)-Gly (50 μM), γ-Glu-Ala (50 μM), γ-Glu-Gly (500 μM), γ-Glu-Cys (50 μM), γ-Glu-Met (500 μM), γ-Glu-Thr (50 μM), γ-Glu-Val (50 μM), γ-Glu-Orn (500 μM), Asp-Gly (1 mM), Cys-Gly (1 mM), Cys-Met (1 mM), Glu-Cys (50 μM), Gly-Cys (500 μM) or Leu-Asp (1 mM) was added, and Ca ion concentration-dependent Cl response current was measured.
# The ability of a peptide to activate calcium receptor was evaluated in the same manner as that of Reference Example 10.
Molecule,effect for activating calcium receptor (Cl response current) (peptide added at 50 μM),Activity (lowest concentration at which current is detected) [µM]
"N[C@@H](CCC(=O)N[C@@H](CS)C(=O)NCC(=O)O)C(=O)O [γ-Glu-Cys-Gly, reference compound]",definite effect for activating calcium receptor,–
[γGlu]-Val-Gly,–,0.1
[γGlu]-[Abu]-Gly,–,3
